Laboratory results reported in patent US5096907A, “Antibiotic LL-E19085” (American Cyanamid Company, priority 1991, dated 1992).
In brackets after ≈: the same amount, converted by molar mass. Like-named read-outs stand apart in the source and are kept apart here.

How the values were obtained:
Assay in all cases: In vitro antibacterial activity, agar dilution
Format in all cases: cell-based
[1] = tested on: Staphylococcus hemolyticus; conditions: read-out: Minimal Inhibitory Concentration
Method: (§1) The in vitro antibacterial effects of antibiotics LL-E19085α, LL-E19085β, LL-E19085γ, LL-E19085.zeta. and LL-E19085.eta. were determined by standard agar dilution methods against clinical isolates obtained from medical centers representing various geographical areas in the United States. The inoculum of each culture was approximately 1 to 5×10^4 colony forming units applied with a Steers multiple inocula replicator to plates containing the antibiotic in Mueller-Hinton agar. The agar was supplemented with about 5% sheep blood where required for the growth of the organism.

[2] = tested on: Streptococcus a-hemolyticus; conditions: strain AMCH 88-84, Mueller-Hinton agar, read-out: Minimal Inhibitory Concentration
Method: as §1

Escherichia coli = tested on: Escherichia coli
Method: as §1

Enterococcus = conditions: strain CHBM 88-60, Mueller-Hinton agar, read-out: Minimal Inhibitory Concentration
Method: as §1

Klebsiella pneumoniae = conditions: strain NEMC 87-271, Mueller-Hinton agar, read-out: Minimal Inhibitory Concentration
Method: as §1

Enterococcus Grp D = conditions: strain WRVA 88-33, Mueller-Hinton agar, read-out: Minimal Inhibitory Concentration
Method: as §1

Bacteroides cereus = conditions: read-out: Minimal Inhibitory Concentration
Method: as §1

Streptococcus faecalis = conditions: Enterococcus faecalis, Mueller-Hinton agar, read-out: Minimal Inhibitory Concentration
Method: as §1

Streptococcus pneumoniae = conditions: read-out: Minimal Inhibitory Concentration
Method: as §1

Staphylococcus aureus = conditions: read-out: Minimal Inhibitory Concentration
Method: as §1

[3] = tested on: Streptococcus b-hemolyticus; conditions: strain AMCH 88-86, Mueller-Hinton agar, read-out: Minimal Inhibitory Concentration
Method: as §1

[4] = strain AVAH 88-1, Mueller-Hinton agar
[5] = strain AVAH 88-3, Mueller-Hinton agar
[6] = ATCC25922, strain ATCC 25922, Mueller-Hinton agar, read-out: Minimal Inhibitory Concentration
[7] = ATCC35218, strain ATCC 35218, Mueller-Hinton agar, read-out: Minimal Inhibitory Concentration
[8] = read-out: Minimal Inhibitory Concentration, strain D21, Mueller-Hinton agar
[9] = strain D22, Mueller-Hinton agar, read-out: Minimal Inhibitory Concentration
[10] = strain CHBB 88-75, Mueller-Hinton agar
[11] = strain CHBM 88-70, Mueller-Hinton agar
[12] = strain TEX 85-2, Mueller-Hinton agar
[13] = ATCC25923, strain ATCC 25923, Mueller-Hinton agar
[14] = ATCC29213, strain ATCC 29213, Mueller-Hinton agar
[15] = strain CMC 83-131, Mueller-Hinton agar
[16] = strain IVES 542, Mueller-Hinton agar
[17] = strain K82-26, Mueller-Hinton agar
[18] = strain NEMC 87-69, Mueller-Hinton agar
[19] = strain ROSE (MP), Mueller-Hinton agar
[20] = strain VGH 84-47, Mueller-Hinton agar

Row | SMILES | MIC [1, 4] [µg/mL] | MIC [1, 5] [µg/mL] | MIC [2] [µg/mL] | MIC (Escherichia coli; [6]) [µg/mL] | MIC (Escherichia coli; [7]) [µg/mL] | MIC (Escherichia coli; [8]) [µg/mL] | MIC (Escherichia coli; [9]) [µg/mL] | MIC (Enterococcus) [µg/mL] | MIC (Klebsiella pneumoniae) [µg/mL] | MIC (Enterococcus Grp D) [µg/mL] | MIC (Bacteroides cereus) [µg/mL] | MIC (Streptococcus faecalis; strain ARUM 87-41) [µg/mL] | MIC (Streptococcus faecalis; strain CMC 83-120) [µg/mL] | MIC (Streptococcus faecalis; strain VCH 84-69) [µg/mL] | MIC (Streptococcus faecalis; strain VCI 85-30) [µg/mL] | MIC (Streptococcus pneumoniae; [10]) [µg/mL] | MIC (Streptococcus pneumoniae; [11]) [µg/mL] | MIC (Streptococcus pneumoniae; [12]) [µg/mL] | MIC (Staphylococcus aureus; [13]) [µg/mL] | MIC (Staphylococcus aureus; [14]) [µg/mL] | also measured
1 | COc1cc2oc3c(c(=O)c2cc1OC)C(=O)c1c(ccc2cc4c(c(O)c12)C(=O)N1C(C)(C4)OC(=O)C1(C)COC(C)=O)C3=O (stereo not drawn) [LL-E19085γ] | 8 (≈ 12.7 µM) | 0.5 (≈ 0.797 µM) | ≤ 0.008 | > 16 | > 16 | ≥ 16 | 16 (≈ 25.5 µM) | 0.5 (≈ 0.797 µM) | ≥ 16 | 0.5 (≈ 0.797 µM) | 0.5 (≈ 0.797 µM) | 0.5 (≈ 0.797 µM) | 1 (≈ 1.59 µM) | 0.03 (≈ 0.0478 µM) | 0.06 (≈ 0.0956 µM) | ≤ 0.008 | ≤ 0.008 | ≤ 0.008 | ≥ 0.008 | 1 (≈ 1.59 µM) | MIC (Staphylococcus aureus; [15]): 16 µg/mL (≈ 25.5 µM); MIC (Staphylococcus aureus; [16]): 8 µg/mL (≈ 12.7 µM); MIC (Staphylococcus aureus; [17]): ≤ 0.008 µg/mL; MIC (Staphylococcus aureus; [18]): 4 µg/mL (≈ 6.37 µM); MIC (Staphylococcus aureus; [19]): 1 µg/mL (≈ 1.59 µM); MIC (Staphylococcus aureus; [20]): 1 µg/mL (≈ 1.59 µM); MIC [3]: ≤ 0.008 µg/mL
2 | COc1cc2oc3c(c(=O)c2cc1OC)C(=O)c1c(ccc2cc4c(c(O)c12)C(=O)N1C(C)(C4)OC(=O)C1(C)CO)C3=O (stereo not drawn) [LL-E19085.eta.] | ≤ 0.015 | ≤ 0.015 | ≤ 0.015 | > 32 | > 32 | ≥ 32 | 2 (≈ 3.42 µM) | ≤ 0.015 | ≥ 32 | ≤ 0.015 | ≤ 0.015 | ≤ 0.015 | ≤ 0.015 | ≤ 0.015 | ≤ 0.015 | ≤ 0.015 | ≤ 0.015 | ≤ 0.015 | ≤ 0.015 | ≤ 0.015 | MIC (Staphylococcus aureus; [15]): 0.12 µg/mL (≈ 0.205 µM); MIC (Staphylococcus aureus; [16]): ≤ 0.015 µg/mL; MIC (Staphylococcus aureus; [17]): ≤ 0.015 µg/mL; MIC (Staphylococcus aureus; [18]): ≤ 0.015 µg/mL; MIC (Staphylococcus aureus; [19]): ≤ 0.015 µg/mL; MIC (Staphylococcus aureus; [20]): ≤ 0.015 µg/mL; MIC [3]: ≤ 0.015 µg/mL
